# Read-outs that look alike come from different tables or passages of the source.
# How the values were obtained:
# [1] = system: strain of Escherichia coli in which a plasmid encoding a class B β-lactamase (IMP-1) was introduced; experiment: Mouse abdominal infection model, E. coli IMP-1 strain; type: in vivo, mice
# Method: After mice were infected with a laboratory strain (a strain of Escherichia coli in which a plasmid encoding a class B β-lactamase (IMP-1) was introduced), a test substance (compound A) was administered; and survival was observed. Specifically, the animal study was performed as follows.
# The laboratory strain grown overnight on a Mueller-Hinton agar medium was scraped with a sterile swab, suspended in physiological saline, adjusted to 2-5×10^8 CFU/mL, and mixed with an equal amount of a 10% mucin solution (1-2.5×10^8 CFU/mL) to prepare a bacterial liquid. Mice (Crl:CD1(ICR), male, 4 weeks old (Charles River Laboratories Japan, Inc.)) acclimated for 4 days after arrival were weighed, and then infected by intraperitoneal administration of 250 μL of the prepared bacterial liquid per mouse. An antimicrobial drug (meropenem trihydrate (WAKO 137-15674)) and the test substance were dissolved in physiological saline. A first intraperitoneal administration of the antimicrobial drug (0.2 mg/kg) and/or the test substance (100 mg/kg) was performed 1 hour after infection. A second administration was performed 3 hours after infection, in the same manner as the first administration (up to this point, day 0). […]
# NDM-1 = NDM-1 (Klebsiella pneumoniae, UniProt C7C422); experiment: Inhibition constant (Ki) measurement test, NDM-1; type: biochemical; settings: imipenem substrate, enzyme 10 nM, 30° C., Lineweaver-Burk; read-out: Inhibition constant Ki NDM-1
# Chain of NDM-1 (C7C422 29-270, looked up, species assumed): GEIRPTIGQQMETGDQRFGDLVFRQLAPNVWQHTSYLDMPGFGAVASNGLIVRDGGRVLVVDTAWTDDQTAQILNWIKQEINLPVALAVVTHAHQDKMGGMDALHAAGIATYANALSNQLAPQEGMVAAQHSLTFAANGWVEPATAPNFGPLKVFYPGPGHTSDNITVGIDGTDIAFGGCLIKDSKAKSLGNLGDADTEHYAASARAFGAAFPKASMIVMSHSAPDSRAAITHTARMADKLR
# Method: (§1) The inhibition constant (Ki) measurement test was performed in the following manner. The inhibition constant (Ki) was measured using various metallo-β-lactamases (final concentration: 10 nM). The imipenem decomposition activity (Δabs/min) at each point under the conditions of absorbance: 298 nm and temperature: 30° C. was measured by varying the concentration of imipenem as a substrate and the concentrations of test substances (compounds A to E) as inhibitors. Each measured value was fitted to the Lineweaver-Burk plot equation to calculate Ki.
# (§2) The test was performed in the same manner as in Test Example 6, except that X2a, X2b, X2c, X2d, X3a, and X4 were used as test substances (inhibitors).
# [2] = system: bacteria (K. pneumoniae) in which a plasmid encoding NDM and VIM was introduced; experiment: Mouse abdominal infection model, K. pneumoniae NDM and VIM strain; type: in vivo, mice; settings: antimicrobial drug 0.8 mg/kg or 4 mg/kg, test substance 10 mg/kg
# Method: The laboratory strain grown overnight on a Mueller-Hinton agar medium was scraped with a sterile swab, suspended in physiological saline, adjusted to 2-5×10^8 CFU/mL, and mixed with an equal amount of a 10% mucin solution (1-2.5×10^8 CFU/mL) to prepare a bacterial liquid. Mice (Crl:CD1(ICR), male, 4 weeks old (Charles River Laboratories Japan, Inc.)) acclimated for 4 days after arrival were weighed, and then infected by intraperitoneal administration of 250 μL of the prepared bacterial liquid per mouse. An antimicrobial drug (meropenem trihydrate (WAKO 137-15674)) and the test substance were dissolved in physiological saline. A first intraperitoneal administration of the antimicrobial drug (0.2 mg/kg) and/or the test substance (100 mg/kg) was performed 1 hour after infection. A second administration was performed 3 hours after infection, in the same manner as the first administration (up to this point, day 0).
# The animal study was performed in the same manner as in Test Example 12, except that in addition to a strain of Escherichia coli in which a plasmid encoding a class B lactamase (IMP-1) was introduced, bacteria (K. pneumoniae) in which a plasmid encoding NDM and VIM was introduced were used as a laboratory strain, compound I was administered as a test substance, […], and the dosage of the test substance was 10 mg/kg. […]
# VIM-2 = VIM-2 (Escherichia coli, UniProt Q5U7L7); experiment: Inhibition constant (Ki) measurement test, VIM-2; type: biochemical; settings: imipenem substrate, enzyme 10 nM, 30° C., Lineweaver-Burk; read-out: Inhibition constant Ki VIM-2
# Method: as §1, §2
# IMP-1 = IMP-1 (Serratia marcescens, UniProt P52699); experiment: Inhibition constant (Ki) measurement test, IMP-1; type: biochemical; settings: imipenem substrate, enzyme 10 nM, 30° C., Lineweaver-Burk; read-out: Inhibition constant Ki IMP-1
# Chain of IMP-1 (P52699 19-246, looked up, species assumed): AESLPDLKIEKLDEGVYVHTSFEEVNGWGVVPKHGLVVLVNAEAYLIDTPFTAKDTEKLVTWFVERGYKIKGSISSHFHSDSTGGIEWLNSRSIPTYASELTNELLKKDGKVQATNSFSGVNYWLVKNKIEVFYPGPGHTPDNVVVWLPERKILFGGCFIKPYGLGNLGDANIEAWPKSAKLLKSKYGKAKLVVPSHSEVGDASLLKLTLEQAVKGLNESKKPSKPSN
# Method: as §1, §2
# [3] = system: Empty vector (no class B lactamase produced), pBCSK (+)/E. coli DH5a; experiment: Drug susceptibility test (MIC), empty vector strain; type: cell-based; settings: Escherichia coli
# [4] = system: class B β-lactamase (IMP-1, NDM-1, or VIM-2); experiment: β-Lactamase inhibitory activity measurement test (imipenem decomposition); type: biochemical; settings: test substance 0, 1, 10, 100 μM; enzyme 10 nM; imipenem 100 μM
# Method: Each individual class B β-lactamase (IMP-1, NDM-1, or VIM-2; final concentration: 10 nM), imipenem (final concentration: 100 μM), and each individual test substance (compound A or compound Z shown below; final concentrations: 0, 1, 10, 100 μM) were mixed in an HEPES buffer. The imipenem decomposition activity (Dabs/min) under the conditions of absorbance: 298 nm and temperature: 30° C. was measured. The imipenem decomposition activity when no test substance was added was defined as 100%, and the imipenem residual decomposition activity when each test substance was individually added was plotted.
# [5] = system: strains of Acinetobacter that produce class B β-lactamases; experiment: Drug susceptibility test 3; type: cell-based; settings: addition of compound A
# [6] = system: strains of Enterobacteriaceae bacteria that produce class B β-lactamases; experiment: Drug susceptibility test 2; type: cell-based; settings: addition of compound A
# [7] = system: β-lactamase-producing bacteria; experiment: Drug susceptibility tests, summary statements over all strains; type: cell-based, E. coli; settings: addition of the compound
# Method: (§3) Plates for drug susceptibility test measurement were prepared by using 96- or 384-well U-bottom plates, a Mueller-Hinton liquid medium, and antimicrobial drugs (ceftazidime (CAZ), imipenem (IPM), meropenem (MPM), doripenem (DPM), and biapenem (BPM)). A 1/2 antimicrobial drug dilution series was made up to well 11 of, for example, a 96-well U-bottom plate so that the leftmost well 1 of row A contained an antimicrobial drug at the maximum concentration, the antimicrobial drug concentration in well 2 to the right of well 1 was 1/2 of the maximum concentration, the antimicrobial drug concentration in well 3 to the right of well 2 was 1/4 of the maximum concentration, and so on. […] An antimicrobial drug dilution series was made in each of rows B and C in the same manner as in row A. Further, 10 μg/mL and 50 μg/mL of a test substance (compound A) were added to row B and row C, respectively (FIG. 1).
# (§4) Bacteria into which a plasmid encoding a class B β-lactamase (metallo-β-lactamase (MBL): NDM-1, or VIM-2) was introduced (pBCSK (+)/E. coli DH5a) were used as test bacteria. The test bacteria were adjusted to 10^8 cfu/mL with a Mueller-Hinton medium. Further, the test bacteria were diluted 10-fold with a Mueller-Hinton medium (10^7 cfu/mL). 5 μl of the test bacteria was collected and inoculated into the plates for drug susceptibility test measurement. After overnight culture at 35° C., the growth of the test bacteria was visually checked. The concentration of the antimicrobial drug in a well containing the lowest concentration of the antimicrobial drug among the wells in which no growth of the test bacteria was confirmed was defined as the minimal inhibitory concentration value (FIG. 1).
# HeLa cells = experiment: Toxicity evaluation test (MTT assay); type: cell-based; settings: various concentrations
# Method: Various concentrations of a test substance (compound A) or staurosporine were added to HeLa cells, and live cells were counted using an MTT assay kit (Promega Cat No. G4000).
# [8] = Reverse mutation test (Ames test); type: cell-based; settings: entrusted to UBE Scientific Analysis Laboratory, Inc.
# From the text: Compound A was used as a test substance.
# [9] = system: bacteria into which a plasmid encoding VIM-2 was introduced (pBCSK (+)/E. coli DH5a); experiment: Drug susceptibility test (MIC), VIM-2-producing strain; type: cell-based; settings: Escherichia coli
# Method: as §3, §4
# (§5) The drug susceptibility test was performed in the same manner as in Test Example 1, except that compounds A to C and E to I were used as test substances.
# (§6) The test was performed in the same manner as in Test Example 1, except that X2a, X2b, X2c, X2d, X3a, and X4 were used as test substances (inhibitors). The inhibitor concentration was 10 μg/mL.
# [10] = system: bacteria into which a plasmid encoding NDM-1 was introduced (pBCSK (+)/E. coli DH5a); experiment: Drug susceptibility test (MIC), NDM-1-producing strain; type: cell-based; settings: Escherichia coli
# Method: as §3, §4, §5, §6
# [11] = read-out: MIC CAZ + compound A (10 μg/ml)
# [12] = read-out: MIC CAZ + compound A (50 μg/ml)
# [13] = read-out: MIC MPM + compound A (10 μg/ml)
# [14] = read-out: MIC MPM + compound A (50 μg/ml)
smiles,measurement,setting,value
CCc1c(C(=O)O)c(S(N)(=O)=O)c(CC)n1C [Compound I],survival rate (FIG. 11),"[1]; antimicrobial drug 0.8 mg/kg or 4 mg/kg, test substance 10 mg/kg",notably improved
same,Ki,NDM-1,840 nM
same,survival rate (FIG. 12),[2],notably improved
same,Ki,VIM-2,20 nM
same,Ki,IMP-1,2140 nM
Cc1oc(C)c(S(N)(=O)=O)c1C(=O)O [Compound A],MIC,[3]; [11],0.25 µg/mL
same,MIC,[3]; [12],0.25 µg/mL
same,MIC,[3]; [13],0.016 µg/mL
same,MIC,[3]; [14],0.016 µg/mL
same,survival rate (FIG. 10),"[1]; meropenem 0.2 mg/kg and test substance 100 mg/kg intraperitoneal, 1 and 3 hours after infection",notably improved
same,"β-lactamase inhibition (imipenem residual decomposition activity, FIG. 2)",[4],inhibit β-lactamases
same,Ki,NDM-1,9820 nM
same,effect on MICs of the antimicrobial drugs (FIG. 4),[5],decreases the MICs
same,effect on MICs of the antimicrobial drugs (FIG. 3),[6],decreases the MICs
same,"effect on MICs of the antimicrobial drugs (statement on Tables 1, 2, 4)",[7],decreases the MICs
same,Ki,VIM-2,2800 nM
same,"toxicity (live cells, MTT, FIG. 9)",HeLa cells,very low
same,Ki,IMP-1,220 nM
same,Ames test result,[8],negative
same,MIC,[9]; [11],1 µg/mL
same,MIC,[9]; [13],0.031 µg/mL
same,MIC,[9]; [14],0.031 µg/mL
same,MIC,[10]; [11],256 µg/mL
same,MIC,[10]; [12],64 µg/mL
same,MIC,[10]; [13],0.25 µg/mL

# — patent publication US11497731B2, “β-lactamase inhibitor” (NATIONAL UNIVERSITY CORPORATION TOKAI NATIONAL HIGHER …, priority 2018, dated 2022)
